This test deals with G9a (Homo sapiens (Human), UniProt Q96KQ7). Kind of test: G9a AlphaLISA enzymatic activity assay. The test is classed as biochemical. On the technique in general: Alpha assays give light when donor and acceptor beads are brought close together.
Setting [1] is: G9a AlphaLISA, negative log of the IC50 value in molar.

Where a name gives a salt, the structure may show the parent alone. Read-outs that look alike come from different tables or passages of the source.

G9a, sequence (Q96KQ7 whole entry): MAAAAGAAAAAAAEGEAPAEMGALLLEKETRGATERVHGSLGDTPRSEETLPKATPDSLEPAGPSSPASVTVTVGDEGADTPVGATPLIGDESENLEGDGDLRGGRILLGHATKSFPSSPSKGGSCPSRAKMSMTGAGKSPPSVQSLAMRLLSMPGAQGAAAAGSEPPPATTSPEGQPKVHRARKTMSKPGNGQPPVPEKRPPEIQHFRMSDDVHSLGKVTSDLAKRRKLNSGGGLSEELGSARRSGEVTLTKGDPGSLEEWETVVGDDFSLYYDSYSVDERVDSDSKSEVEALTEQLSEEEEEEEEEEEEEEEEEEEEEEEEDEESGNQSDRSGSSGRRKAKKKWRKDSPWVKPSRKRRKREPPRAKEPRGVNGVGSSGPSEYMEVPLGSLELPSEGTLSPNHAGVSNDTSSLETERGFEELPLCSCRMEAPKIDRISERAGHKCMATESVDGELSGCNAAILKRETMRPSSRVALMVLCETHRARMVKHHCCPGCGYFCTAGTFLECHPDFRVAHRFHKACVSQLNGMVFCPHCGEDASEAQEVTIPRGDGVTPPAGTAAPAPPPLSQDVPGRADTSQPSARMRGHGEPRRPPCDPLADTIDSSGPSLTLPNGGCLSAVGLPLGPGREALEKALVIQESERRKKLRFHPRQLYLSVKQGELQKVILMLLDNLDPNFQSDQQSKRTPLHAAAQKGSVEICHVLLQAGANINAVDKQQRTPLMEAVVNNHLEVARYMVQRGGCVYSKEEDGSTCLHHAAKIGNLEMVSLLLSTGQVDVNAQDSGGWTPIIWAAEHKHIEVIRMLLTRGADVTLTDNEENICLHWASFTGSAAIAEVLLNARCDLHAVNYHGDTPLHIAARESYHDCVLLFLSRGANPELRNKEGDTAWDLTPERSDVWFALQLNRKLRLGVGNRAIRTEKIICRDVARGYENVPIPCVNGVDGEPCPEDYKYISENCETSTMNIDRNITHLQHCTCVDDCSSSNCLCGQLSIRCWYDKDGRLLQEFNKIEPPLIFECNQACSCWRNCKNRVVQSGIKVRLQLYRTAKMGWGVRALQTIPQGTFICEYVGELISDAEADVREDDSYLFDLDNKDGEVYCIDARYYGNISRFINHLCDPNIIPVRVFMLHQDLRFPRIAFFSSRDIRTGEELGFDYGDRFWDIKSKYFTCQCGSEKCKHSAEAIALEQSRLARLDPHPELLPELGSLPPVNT

Turning to `COc1cc2nc3c(c(NC4CCN(c5ccc(F)cc5)CC4)c2cc1OC)CCC3`, the negative-log IC50 (pIC50) under setting [1] was 6.85.

Under setting [1], `COc1cc2nc3c(c(NCC4CC(N(C)C)C4)c2cc1OC)CCC3` (stereo not shown) came in with a pIC50 of 5.24.

`COc1cc2nc3c(c(N[C@@H]4CCCN(C)C4)c2cc1OC)CCC3`: the negative-log IC50 (pIC50) is reported as 5.48.

In turn, `COc1cc2nc3c(c(NC4CCN(c5ccccc5Cl)CC4)c2cc1OC)CCC3` returned a negative logarithm of the IC50 (pIC50) of 6.72.

As for `COc1cc2nc3c(c(NC(C)C)c2cc1OC)CCC3` [Example 1, 6,7-dimethoxy-N-(propan-2-yl)-1H,2H,3H-cyclopenta[b]quinolin-9-amine formate], under setting [1], the negative logarithm of the IC50 (pIC50) is 5.97.

In the case of `CCCOc1cc2nc3c(c(NC)c2cc1OC)CCC3` [Example 2, bis(formic acid)], the pIC50 under setting [1] came out at 5.

Under setting [1], `CNc1c2c(nc3cc(OCCCOC)c(OC)cc13)CCC2` [Example 3] gave a negative logarithm of the IC50 (pIC50) of 5.53.

Compound `CCOCCOc1cc2nc3c(c(NC)c2cc1OC)CCC3` [Example 4, bis(formic acid)] returned a pIC50 under setting [1] of 5.57. The pIC50 values of the last two compounds are within 0.2 log units of each other.

As for `COc1cc2c(NC(C)C)c3c(nc2cc1OCCOCCO)CCC3` [Example 6], under setting [1], the pIC50 was 5.

On to `COc1cc2nc3c(c(NC4CCN(C)CC4)c2cc1OC)CCC3` [Example 9], for which, under setting [1], the negative-log IC50 (pIC50) came out at 7.31.

With `COc1cc2nc3c(c(NC4CCCNC4)c2cc1OC)CCC3` (stereo not shown) [Example 10], the pIC50 under setting [1] worked out at 7.66.

Compound `COc1cc2nc3c(c(NCC4CN(C)C4)c2cc1OC)CCC3` [Example 11] gave a negative-log IC50 (pIC50) under setting [1] of 7.49.

`COc1cc2nc3c(c(NC4CN(C(=O)OC(C)(C)C)C4)c2cc1OC)CCC3` [Example 12] registered a negative-log IC50 (pIC50) under setting [1] of 5.5.

On to `COc1cc2nc3c(c(NC4CNC4)c2cc1OC)CCC3` [Example 13], for which, under setting [1], the pIC50 was 7.22.

Turning to `COc1cc2nc3c(c(NC4CCN(c5ccccc5)CC4)c2cc1OC)CCC3` [Example 14], the negative-log IC50 (pIC50) under setting [1] was determined as 5.55.

Under setting [1], `CCN1CCC(Nc2c3c(nc4cc(OC)c(OC)cc24)CCC3)CC1` [Example 15] showed a pIC50 of 7.67.

Consider `COc1cc2nc3c(c(NC4CCN(C5CCOCC5)CC4)c2cc1OC)CCC3` [Example 16, hydrochloride], for which, under setting [1], the negative-log IC50 (pIC50) is recorded as 7.27.

For the compound `COc1cc2nc3c(c(NC4CC5(C4)CN(C(=O)OC(C)(C)C)C5)c2cc1OC)CCC3` [Example 17], the pIC50 under setting [1] worked out at 5.5.

As to `COc1cc2nc3c(c(NC4CC5(CNC5)C4)c2cc1OC)CCC3` [Example 19, bis(formic acid)], the pIC50 under setting [1] is listed as 5.

For the compound `CC(C)N1CCC(Nc2c3c(nc4cc5c(cc24)OCO5)CCC3)CC1` [Example 20], under setting [1], the pIC50 is 7.53.

Compound `COc1cc2c(NC(C)C)c3c(nc2cc1OCCCCCO)CCC3` [Example 21] yielded a pIC50 under setting [1] of 5.3.

Regarding `COc1cc2nc3c(c(NC4CCN(c5ccncc5)CC4)c2cc1OC)CCC3` [Example 22], the pIC50 under setting [1] was 6.21.

The compound `COc1cc2nc3c(c(NC4CCN(c5cccnc5)CC4)c2cc1OC)CCC3` [Example 23] gave a pIC50 under setting [1] of 7.05.

Compound `COc1cc2nc3c(c(NC4CCN(c5ccccn5)CC4)c2cc1OC)CCC3` [Example 24] yielded a pIC50 under setting [1] of 6.11.

`COc1cc2nc3c(c(NC4CCN(c5cccc(F)c5)CC4)c2cc1OC)CCC3` [Example 25] showed a pIC50 under setting [1] of 5.87.

With `COc1cc2nc3c(c(NC4CCN(c5ccccc5F)CC4)c2cc1OC)CCC3` [Example 26], the negative logarithm of the IC50 (pIC50) under setting [1] is 7.53.

`CCN1CC(Nc2c3c(nc4cc(OC)c(OC)cc24)CCC3)C1` [Example 27] registered a pIC50 under setting [1] of 8.08.

Compound `COc1cc2nc3c(c(N[C@H]4CCCNC4)c2cc1OC)CCC3` [Example 28] gave a pIC50 under setting [1] of 6.66.

In turn, `COc1cc2nc3c(c(N[C@@H]4CCCNC4)c2cc1OC)CCC3` [Example 29] showed a pIC50 under setting [1] of 6.81.

Regarding `COc1cc2nc3c(c(N[C@H]4CCCN(C)C4)c2cc1OC)CCC3` [Example 30], the negative logarithm of the IC50 (pIC50) under setting [1] is 7.83.

Take `COc1cc2c(NC(C)C)c3c(nc2cc1OCCCC(C)O)CCC3` (stereo not shown) [Example 31]: under setting [1], the negative-log IC50 (pIC50) is recorded as 6.23.

Under setting [1], `COc1cc2nc3c(c(NC4CCN(C(C)C)CC4)c2cc1OC)CCCCC3` [Example 33] gave a negative logarithm of the IC50 (pIC50) of 5.78.

`COc1cc2c(NC3CCN(C(C)C)CC3)c3c(nc2cc1O)CCC3` [Example 35] gave a negative-log IC50 (pIC50) under setting [1] of 7.94.

On to `COc1cc2c(NC3CCN(C(C)C)CC3)c3c(nc2cc1OC(F)F)CCC3` [Example 36], for which the negative logarithm of the IC50 (pIC50) under setting [1] is given as 5.42.

`COc1cc2nc3c(c(NCc4cn(C)cn4)c2cc1OC)CCC3` [Example 41] yielded a pIC50 of 5.32.

For the compound `COc1cc2nc3c(c(NC4CCN(C(CO)CCl)CC4)c2cc1OC)CCC3` (stereo not shown) [Example 44], the negative-log IC50 (pIC50) under setting [1] is on record as 5.49.

For `COc1cc2nc3c(c(NC4CCN(Cc5ccccc5)CC4)c2cc1OC)CCC3` [Example 45], the pIC50 under setting [1] is 7.07.

On to `COc1cc2nc3ccccc3c(NC3CCN(C(C)C)CC3)c2cc1OC` [Example 46], for which the negative logarithm of the IC50 (pIC50) worked out at 6.75.

`COc1cc2nc3ccccc3c(NC3CCN(C(C)C)CC3)c2cc1OC` [Example 47] had a negative logarithm of the IC50 (pIC50) of 7.1.

Take `COc1cc2nc3c(c(NC4CCN(c5ccccc5OC)CC4)c2cc1OC)CCC3` [Example 49]: the pIC50 under setting [1] came to 5.63.

The compound `COc1cc2nc3c(c(NC4CCN(c5cccc(Cl)c5)CC4)c2cc1OC)CCC3` [Example 50] gave a pIC50 under setting [1] of 5.53.

Under setting [1], `COc1cc2c(NC3CCN(C(C)C)CC3)c3c(nc2cc1OCCCO)CCC3` [Example 51] gave a negative logarithm of the IC50 (pIC50) of 6.45.

Compound `COc1cc2nc3c(c(NC4CCN(C(=O)COCc5ccccc5)CC4)c2cc1OC)CCC3` [Example 52] registered a pIC50 under setting [1] of 6.39.

Take `COc1cc2c(NC3CCN(C(C)C)CC3)c3c(nc2cc1OCCO)CCC3` [Example 53, 2-[(7-methoxy-9-{[1-(propan-2-yl)piperidin-4-yl]amino}-1H,2H,3H-cyclopenta[b]quinolin-6-yl)oxy]ethan-1-ol]: the pIC50 under setting [1] is recorded as 6.54.

Turning to `COc1cc2nc3c(c(NC4CCN(C(=O)CO)CC4)c2cc1OC)CCC3` [Example 54, 1-[4-({6,7-dimethoxy-1H,2H,3H-cyclopenta[b]quinolin-9-yl}amino)piperidin-1-yl]-2-hydroxyethan-1-one], under setting [1], the negative logarithm of the IC50 (pIC50) came to 6.24.

Take `COc1cc2nc3c(c(NC4CCN(c5ccncc5F)CC4)c2cc1OC)CCC3` [Example 55, N-{6,7-dimethoxy-1H,2H,3H-cyclopenta[b]quinolin-9-yl}-1-(3-fluoropyridin-4-yl)piperidin-4-amine]: under setting [1], the pIC50 was 6.05.

Under setting [1], `COc1cc2c(NC3CCN(C(C)C)CC3)c3c(nc2cc1C1CC1)CCC3` [Example 57, N-{6-cyclopropyl-7-methoxy-1H,2H,3H-cyclopenta[b]quinolin-9-yl}-1-(propan-2-yl)piperidin-4-amine] gave a negative-log IC50 (pIC50) of 6.72.

The compound `COc1cc2nc3c(c(NC4CCN(C(N)=O)CC4)c2cc1OC)CCC3` [Example 58, 4-({6,7-dimethoxy-1H,2H,3H-cyclopenta[b]quinolin-9-yl}amino)piperidine-1-carboxamide] displayed a negative logarithm of the IC50 (pIC50) under setting [1] of 6.12.

`COc1cc2nc3c(c(NC4CCN(c5cccc(F)c5F)CC4)c2cc1OC)CCC3` [Example 59, 1-(2,3-difluorophenyl)-N-{6,7-dimethoxy-1H,2H,3H-cyclopenta[b]quinolin-9-yl}piperidin-4-amine]: the pIC50 under setting [1] is 5.3.

Consider `COc1cc2nc3c(c(NC4CCN(C5CCCC5)CC4)c2cc1OC)CCC3` [Example 60, 1-cyclopentyl-N-{6,7-dimethoxy-1H,2H,3H-cyclopenta[b]quinolin-9-yl}piperidin-4-amine], for which the negative-log IC50 (pIC50) under setting [1] was 7.4.

The compound `COCCN1CCC(Nc2c3c(nc4cc(OC)c(OC)cc24)CCC3)CC1` [Example 61, N-{6,7-dimethoxy-1H,2H,3H-cyclopenta[b]quinolin-9-yl}-1-(2-methoxyethyl)piperidin-4-amine] gave a pIC50 under setting [1] of 6.7.

`COc1cc2nc3c(c(N[C@@H]4CCCNCC4)c2cc1OC)CCC3` [Example 62, (4R)-N-{6,7-dimethoxy-1H,2H,3H-cyclopenta[b]quinolin-9-yl}azepan-4-amine] came in with a negative-log IC50 (pIC50) under setting [1] of 7.5.

Consider `COc1cc2nc3c(c(N[C@@H]4CCCN(C)CC4)c2cc1OC)CCC3` [Example 63, (4R)-N-{6,7-dimethoxy-1H,2H,3H-cyclopenta[b]quinolin-9-yl}-1-methylazepan-4-amine], for which the negative logarithm of the IC50 (pIC50) under setting [1] was 7.5.

In turn, `CCN1CCC[C@@H](Nc2c3c(nc4cc(OC)c(OC)cc24)CCC3)CC1` [Example 64, (4R)-N-{6,7-dimethoxy-1H,2H,3H-cyclopenta[b]quinolin-9-yl}-1-ethylazepan-4-amine] yielded a pIC50 under setting [1] of 7.6. The pIC50 values of the last two compounds are within 0.2 log units of each other.

`COc1cc2nc3c(c(NCC4CCNC4)c2cc1OC)CCC3` (stereo not shown) [Example 65, 6,7-dimethoxy-N-[(pyrrolidin-3-yl)methyl]-1H,2H,3H-cyclopenta[b]quinolin-9-amine] displayed a negative logarithm of the IC50 (pIC50) under setting [1] of 7.4.

For the compound `COc1cc2nc3c(c(NCC4CCCN4)c2cc1OC)CCC3` (stereo not shown) [Example 66, 6,7-dimethoxy-N-[(pyrrolidin-2-yl)methyl]-1H,2H,3H-cyclopenta[b]quinolin-9-amine], the negative logarithm of the IC50 (pIC50) under setting [1] is 7.3.

In turn, `COc1cc2nc3c(c(NCC4CCNCC4)c2cc1OC)CCC3` [Example 67, 6,7-dimethoxy-N-[(piperidin-4-yl)methyl]-1H,2H,3H-cyclopenta[b]quinolin-9-amine] registered a pIC50 under setting [1] of 7.

Compound `COc1cc2nc3c(c(NC[C@@H]4CCCNC4)c2cc1OC)CCC3` [Example 68, 6,7-dimethoxy-N-{[(3R)-piperidin-3-yl]methyl}-1H,2H,3H-cyclopenta[b]quinolin-9-amine] displayed a negative-log IC50 (pIC50) under setting [1] of 6.9. The pIC50 values of the last two compounds are within 0.2 log units of each other.

In turn, `COc1cc2nc3c(c(NC[C@H]4CCCNC4)c2cc1OC)CCC3` [Example 69] had a pIC50 under setting [1] of 7.1.

On to `COc1cc2nc3c(c(NC4CCN(C(C)C)CC4)c2nc1OC)CCC3` [Example 134, N-[2,3-dimethoxy-6H,7H,8H-cyclopenta[b]1,5-naphthyridin-9-yl]-1-(propan-2-yl)piperidin-4-amine], for which the negative logarithm of the IC50 (pIC50) under setting [1] worked out at 6.8.

Under setting [1], `COc1cc2nc3c(c(N[C@@H]4CCCNC4)c2nc1OC)CCC3` [Example 149, (3R)-N-[2,3-dimethoxy-6H,7H, 8Hcyclopenta[b]1,5naphthyridin-9-yl]piperidin-3-amine] came in with a pIC50 of 7.2.

By pIC50 is commonly meant the IC50 on a negative log10 scale, so that one unit is a factor of ten. Read a high pIC50 as a small IC50.

Values taken from US11661410B2 (GLOBAL BLOOD THERAPEUTICS, INC., priority 2017, dated 2023).
